Measured values reported in patent US9926282B2, “Phthalazinones and isoquinolinones as rock inhibitors” (BRISTOL-MYERS SQUIBB COMPANY, priority 2013, dated 2018).

Legend:
[1] = target: ROCK1 (Homo sapiens (Human), UniProt Q13464); assay: ROCK assay (LABCHIP peptide phosphorylation), ROCK1; assay type: biochemical; settings: 5 μM ATP, 1.5 μM peptide substrate; read-out: ROCK1 IC50
[2] = target: ROCK2 (Homo sapiens (Human), UniProt O75116); assay: ROCK assay (LABCHIP peptide phosphorylation), ROCK2; assay type: biochemical; settings: 5 μM ATP, 1.5 μM peptide substrate
Chain of ROCK2 (O75116 whole entry, species assumed): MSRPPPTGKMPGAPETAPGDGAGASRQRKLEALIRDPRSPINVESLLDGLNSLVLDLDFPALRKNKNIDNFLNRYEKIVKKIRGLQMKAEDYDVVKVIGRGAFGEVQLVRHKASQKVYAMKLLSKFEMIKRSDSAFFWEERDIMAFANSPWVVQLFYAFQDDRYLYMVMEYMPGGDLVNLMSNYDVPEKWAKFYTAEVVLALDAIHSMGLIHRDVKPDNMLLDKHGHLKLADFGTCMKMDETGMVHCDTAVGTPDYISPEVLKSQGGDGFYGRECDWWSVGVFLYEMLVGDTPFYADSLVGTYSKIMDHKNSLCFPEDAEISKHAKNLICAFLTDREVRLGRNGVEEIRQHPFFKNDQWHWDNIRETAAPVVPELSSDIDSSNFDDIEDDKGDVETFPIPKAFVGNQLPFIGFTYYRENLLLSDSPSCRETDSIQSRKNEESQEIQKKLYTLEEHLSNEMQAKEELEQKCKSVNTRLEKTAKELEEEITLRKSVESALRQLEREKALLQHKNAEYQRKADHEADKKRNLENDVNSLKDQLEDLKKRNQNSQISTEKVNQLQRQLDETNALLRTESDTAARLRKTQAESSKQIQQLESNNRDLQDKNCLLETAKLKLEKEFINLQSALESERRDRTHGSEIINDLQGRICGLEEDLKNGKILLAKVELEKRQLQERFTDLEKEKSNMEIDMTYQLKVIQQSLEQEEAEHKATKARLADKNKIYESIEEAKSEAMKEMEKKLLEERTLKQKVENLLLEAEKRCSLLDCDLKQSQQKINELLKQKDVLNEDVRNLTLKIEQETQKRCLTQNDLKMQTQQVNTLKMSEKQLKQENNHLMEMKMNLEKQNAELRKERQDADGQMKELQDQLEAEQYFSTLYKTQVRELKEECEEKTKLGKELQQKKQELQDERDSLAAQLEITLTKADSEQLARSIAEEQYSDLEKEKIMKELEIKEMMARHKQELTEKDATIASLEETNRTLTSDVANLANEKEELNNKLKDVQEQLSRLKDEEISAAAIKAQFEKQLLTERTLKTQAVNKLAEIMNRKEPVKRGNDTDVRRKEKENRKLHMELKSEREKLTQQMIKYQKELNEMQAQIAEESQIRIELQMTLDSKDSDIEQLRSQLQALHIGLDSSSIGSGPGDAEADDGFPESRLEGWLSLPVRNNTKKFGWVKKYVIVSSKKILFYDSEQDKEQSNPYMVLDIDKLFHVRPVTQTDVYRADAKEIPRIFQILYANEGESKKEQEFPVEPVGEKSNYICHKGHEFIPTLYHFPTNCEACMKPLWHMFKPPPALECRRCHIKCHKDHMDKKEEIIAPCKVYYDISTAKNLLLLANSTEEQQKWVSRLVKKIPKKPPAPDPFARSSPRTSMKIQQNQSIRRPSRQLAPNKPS

Chain of ROCK1 (Q13464 whole entry, species assumed): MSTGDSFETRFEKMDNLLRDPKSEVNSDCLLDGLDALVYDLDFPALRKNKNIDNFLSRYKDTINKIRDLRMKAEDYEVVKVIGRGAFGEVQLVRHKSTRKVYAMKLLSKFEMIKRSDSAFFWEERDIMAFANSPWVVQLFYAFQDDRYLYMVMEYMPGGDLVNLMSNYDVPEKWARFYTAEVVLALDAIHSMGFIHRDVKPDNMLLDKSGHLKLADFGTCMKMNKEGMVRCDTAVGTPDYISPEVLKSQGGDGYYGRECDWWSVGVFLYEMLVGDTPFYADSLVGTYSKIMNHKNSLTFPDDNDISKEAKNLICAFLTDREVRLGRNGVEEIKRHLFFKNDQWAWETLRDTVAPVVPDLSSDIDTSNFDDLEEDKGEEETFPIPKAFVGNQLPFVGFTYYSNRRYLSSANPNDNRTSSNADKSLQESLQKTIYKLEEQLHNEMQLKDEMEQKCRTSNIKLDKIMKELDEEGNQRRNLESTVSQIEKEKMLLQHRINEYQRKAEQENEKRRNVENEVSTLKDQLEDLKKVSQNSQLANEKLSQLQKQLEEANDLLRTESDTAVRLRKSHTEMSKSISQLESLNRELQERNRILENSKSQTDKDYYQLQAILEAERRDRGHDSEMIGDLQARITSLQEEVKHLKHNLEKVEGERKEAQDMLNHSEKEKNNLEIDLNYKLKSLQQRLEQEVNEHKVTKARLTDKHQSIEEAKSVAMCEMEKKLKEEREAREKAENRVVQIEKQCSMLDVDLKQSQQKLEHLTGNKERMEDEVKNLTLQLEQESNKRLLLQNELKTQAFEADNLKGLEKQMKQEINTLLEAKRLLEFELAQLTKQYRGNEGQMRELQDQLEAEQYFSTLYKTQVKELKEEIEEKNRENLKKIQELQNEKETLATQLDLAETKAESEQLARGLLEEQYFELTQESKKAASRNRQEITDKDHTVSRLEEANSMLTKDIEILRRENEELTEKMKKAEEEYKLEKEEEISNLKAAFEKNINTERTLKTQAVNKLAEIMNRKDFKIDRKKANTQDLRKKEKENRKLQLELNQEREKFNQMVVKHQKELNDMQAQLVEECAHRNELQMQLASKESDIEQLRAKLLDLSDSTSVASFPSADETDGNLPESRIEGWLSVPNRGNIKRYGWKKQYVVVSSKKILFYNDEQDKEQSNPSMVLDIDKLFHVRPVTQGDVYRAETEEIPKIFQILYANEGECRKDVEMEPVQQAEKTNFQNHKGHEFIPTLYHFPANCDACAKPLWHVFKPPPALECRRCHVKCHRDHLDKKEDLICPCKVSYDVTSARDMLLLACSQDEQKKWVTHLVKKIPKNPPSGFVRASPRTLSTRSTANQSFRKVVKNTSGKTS

Compound	IC50 [1] [nM]	IC50 [2] [nM]
Cn1cc(C(=O)Nc2ccc(-c3n[nH]c(=O)c4ccccc34)cc2)c2ccccc21 [Example 122, 1-methyl-N-[4-(4-oxo-3,4-dihydrophthalazin-1-yl)phenyl]-1H-indole-3-carboxamide]	0.1 to 100	0.1 to 100
O=C(Cc1ccc(-c2n[nH]c(=O)c3ccccc23)cc1)Nc1nncs1 [Example 29, 2-[4-(4-oxo-3,4-dihydrophthalazin-1-yl)phenyl]-N-(1,3,4-thiadiazol-2-yl)acetamide]	1000 to 50000	0.1 to 100
O=C(Nc1ccc(-c2n[nH]c(=O)c3ccccc23)cc1)c1nn(CC2CCCO2)c2ccccc12 (centres unmarked) [Example 148, N-[4-(4-oxo-3,4-dihydrophthalazin-1-yl)phenyl]-1-(oxolan-2-ylmethyl)-1H-indazole-3-carboxamide]	0.1 to 100	0.1 to 100
O=C(Nc1ccc(-c2n[nH]c(=O)c3ccccc23)cc1)C1CCc2ccccc21 (centres unmarked) [Example 91, N-[4-(4-oxo-3,4-dihydrophthalazin-1-yl)phenyl]-2,3-dihydro-1H-indene-1-carboxamide]	1000 to 50000	0.1 to 100
O=C(Nc1ccc(-c2n[nH]c(=O)c3ccccc23)cc1)c1ccc(N2CCCCC2)cc1 [Example 61]	0.1 to 100	0.1 to 100
O=c1[nH]nc(-c2ccc(Nc3ncc(-c4ccccc4)o3)cc2)c2ccccc12 [Example 73, 4-(4-((5-Phenyloxazol-2-yl)amino)phenyl)phthalazin-1 (2H)-one]	101 to 1000	0.1 to 100
CC(=O)N1CCC(Cn2nc(C(=O)Nc3ccc(-c4n[nH]c(=O)c5ccccc45)cc3)c3ccccc32)CC1 [Example 343, 1-((1-Acetylpiperidin-4-yl)methyl)-N-(4-(4-oxo-3,4-dihydrophthalazin-1-yl)phenyl)-1H-indazole-3-carboxamide]	0.1 to 100	0.1 to 100
Cn1nc(C(=O)Nc2ccc(-c3n[nH]c(=O)c4ccccc34)cc2)cc1-c1ccccc1 [Example 207, 1-methyl-N-[4-(4-oxo-3,4-dihydrophthalazin-1-yl)phenyl]-5-phenyl-1H-pyrazole-3-carboxamide]	0.1 to 100	0.1 to 100
Cn1nc(C(=O)Nc2ccc(-c3n[nH]c(=O)c4ccccc34)cc2)cc1OC(F)F [Example 403, 5-(Difluoromethoxy)-1-methyl-N-(4-(4-oxo-3,4-dihydrophthalazin-1-yl)phenyl)-1H-pyrazole-3-carboxamide]	0.1 to 100	0.1 to 100
CCc1nc2ncccn2c1C(=O)Nc1ccc(-c2n[nH]c(=O)c3ccccc23)cc1 [Example 140, 2-ethyl-N-[4-(4-oxo-3,4-dihydrophthalazin-1-yl)phenyl]imidazo[1,2-a]pyrimidine-3-carboxamide]	0.1 to 100	0.1 to 100
Cc1ccn2cc(C(=O)Nc3ccc(-c4n[nH]c(=O)c5ccccc45)cc3)nc2c1 [Example 126, 7-methyl-N-[4-(4-oxo-3,4-dihydrophthalazin-1-yl)phenyl]imidazo[1,2-a]pyridine-2-carboxamide]	101 to 1000	0.1 to 100
O=C(Cc1ccc(-c2n[nH]c(=O)c3ccccc23)c(F)c1)N1Cc2ccccc2C1 [Example 37, 4-(2-Fluoro-4-(2-(isoindolin-2-yl)-2-oxoethyl)phenyl)phthalazin-1(2H)-one]	101 to 1000	0.1 to 100
CN1CCC(Oc2ccc3c(c2)N(C(=O)Cc2ccc(-c4n[nH]c(=O)c5ccccc45)cc2)CC3)CC1 [Example 282, 4-[4-(2-{6-[(1-methylpiperidin-4-yl)oxy]-2,3-dihydro-1H-indol-1-yl}-2-oxoethyl)phenyl]-1,2-dihydrophthalazin-1-one]	101 to 1000	0.1 to 100
Cc1cc(NC(=O)c2nn(CC3CCN(C(=O)OCc4ccccc4)CC3)c3ccccc23)ccc1-c1n[nH]c(=O)c2ccccc12 [Example 307, benzyl 4-[(3-{[3-methyl-4-(4-oxo-3,4-dihydrophthalazin-1-yl)phenyl]carbamoyl}-1H-indazol-1-yl)methyl] piperidine-1-carboxylate]	101 to 1000	0.1 to 100
O=C(Nc1ccc(-c2n[nH]c(=O)c3ccccc23)cc1)c1csc(-c2ccccc2)n1 [Example 46, N-[4-(4-oxo-3,4-dihydrophthalazin-1-yl)phenyl]-2-phenyl-1,3-thiazole-4-carboxamide]	1000 to 50000	0.1 to 100
COCCn1nc(C(=O)Nc2ccc(-c3n[nH]c(=O)c4ccccc34)cc2)c2ccccc21 [Example 151, 1-(2-methoxyethyl)-N-[4-(4-oxo-3,4-dihydrophthalazin-1-yl)phenyl]-1H-indazole-3-carboxamide]	0.1 to 100	0.1 to 100
COc1ccc(-n2nnc(C)c2C(=O)Nc2ccc(-c3n[nH]c(=O)c4ccccc34)cc2)cc1 [Example 402, 1-(4-Methoxyphenyl)-4-methyl-N-(4-(4-oxo-3,4-dihydrophthalazin-1-yl)phenyl)-1H-1,2,3-triazole-5-carboxamide]	101 to 1000	0.1 to 100

Compound	IC50 [1] [nM]	IC50 [2] [nM]
O=C(Cc1ccc(-c2n[nH]c(=O)c3ccccc23)c(F)c1)N1CCc2ccccc21 [Example 261, 4-(2-Fluoro-4-(2-(indolin-1-yl)-2-oxoethyl)phenyl)phthalazin-1(2H)-one]	0.1 to 100	0.1 to 100
O=C(Nc1ccc(-c2n[nH]c(=O)c3ccccc23)cc1)c1csc(-c2ccc(C(F)(F)F)cc2)n1 [Example 48, N-[4-(4-oxo-3,4-dihydrophthalazin-1-yl)phenyl]-2-[4-(trifluoromethyl)phenyl]-1,3-thiazole-4-carboxamide]	101 to 1000	0.1 to 100
COc1cc2cc(C(=O)Nc3ccc(-c4n[nH]c(=O)c5ccccc45)cc3)oc2cc1F [Example 180, 6-fluoro-5-methoxy-N-[4-(4-oxo-3,4-dihydrophthalazin-1-yl)phenyl]-1-benzofuran-2-carboxamide]	0.1 to 100	0.1 to 100
COc1ccc2c(C(=O)Nc3ccc(-c4n[nH]c(=O)c5ccccc45)cc3)cnn2c1 [Example 141, 6-methoxy-N-[4-(4-oxo-3,4-dihydrophthalazin-1-yl)phenyl]pyrazolo[1,5-a]pyridine-3-carboxamide]	0.1 to 100	0.1 to 100
CN(C)CCOc1ccc2c(c1)N(C(=O)Cc1ccc(-c3n[nH]c(=O)c4ccccc34)cc1)CC2 [Example 279, 4-[4-(2-{6-[2-(dimethylamino)ethoxy]-2,3-dihydro-1H-indol-1-yl}-2-oxoethyl)phenyl]-1,2-dihydrophthalazin-1-one]	101 to 1000	0.1 to 100
Cc1cc(NC(=O)c2cnc3ccccn23)ccc1-c1n[nH]c(=O)c2ccccc12 [Example 312, N-[3-methyl-4-(4-oxo-3,4-dihydrophthalazin-1-yl)phenyl]imidazo [1,2-a]pyridine-3-carboxamide]	101 to 1000	0.1 to 100
O=C(Nc1ccc(-c2n[nH]c(=O)c3ccccc23)c(Cl)c1)c1cnc2ccccn12 [Example 317, N-[3-chloro-4-(4-oxo-3,4-dihydrophthalazin-1-yl)phenyl]imidazo[1,2-a] pyridine-3-carboxamide]	0.1 to 100	0.1 to 100
Cc1c(C(=O)Nc2ccc(-c3n[nH]c(=O)c4ccccc34)cc2)cnn1-c1cccc(Cl)c1F [Example 202, 1-(3-chloro-2-fluorophenyl)-5-methyl-N-[4-(4-oxo-3,4-dihydrophthalazin-1-yl)phenyl]-1H-pyrazole-4-carboxamide]	0.1 to 100	0.1 to 100
O=C(Nc1ccc(-c2n[nH]c(=O)c3ccccc23)cc1)c1cnn(-c2ccccc2)c1C(F)(F)F [Example 190, N-[4-(4-oxo-3,4-dihydrophthalazin-1-yl)phenyl]-1-phenyl-5-(trifluoromethyl)-1H-pyrazole-4-carboxamide]	0.1 to 100	0.1 to 100
COC[C@@H]1CCCN1C(=O)Cc1ccc(-c2n[nH]c(=O)c3ccccc23)cc1 [Example 13, 4-(4-{2-[(2S)-2-(methoxymethyl)pyrrolidin-1-yl]-2-oxoethyl}phenyl)-1,2-dihydrophthalazin-1-one]	1000 to 50000	1000 to 50000
O=C(Nc1ccc(-c2n[nH]c(=O)c3ccccc23)cc1)c1cn2c(n1)CCCC2 [Example 134, N-[4-(4-oxo-3,4-dihydrophthalazin-1-yl)phenyl]-5H,6H,7H,8H-imidazo[1,2-a]pyridine-2-carboxamide]	101 to 1000	0.1 to 100
O=C(Cc1ccc(-c2n[nH]c(=O)c3ccccc23)cc1)NCC1CC1 [Example 14, N-(cyclopropylmethyl)-2-[4-(4-oxo-3,4-dihydrophthalazin-1-yl)phenyl]acetamide]	1000 to 50000	1000 to 50000
2-[4-(4-oxo-3,4- dihydrophthalazin-1- yl)phenyl]-N-[(1S,2R)- 2-phenylcyclopropyl] acetamide [Example 18]	1000 to 50000	1000 to 50000
Cn1nc(C(F)(F)F)cc1C(=O)Nc1ccc(-c2n[nH]c(=O)c3ccccc23)cc1 [Example 408, 1-Methyl-N-(4-(4-oxo-3,4-dihydrophthalazin-1-yl)phenyl)-3-(trifluoromethyl)-1H-pyrazole-5-carboxamide]	101 to 1000	0.1 to 100
O=C(Nc1ccc(-c2n[nH]c(=O)c3ccccc23)cc1)c1cnn(-c2ccccc2)c1 [Example 191, N-[4-(4-oxo-3,4-dihydrophthalazin-1-yl)phenyl]-1-phenyl-1H-pyrazole-4-carboxamide]	0.1 to 100	0.1 to 100
CC(C)=Cn1nc(C(=O)Nc2ccc(-c3n[nH]c(=O)c4ccccc34)cc2)c2ccc(F)cc21 [Example 179, 6-fluoro-1-(2-methylprop-1-en-1-yl)-N-[4-(4-oxo-3,4-dihydrophthalazin-1-yl)phenyl]-1H-indazole-3-carboxamide]	0.1 to 100	0.1 to 100
Cc1onc(NC(=O)Cc2ccc(-c3n[nH]c(=O)c4ccccc34)cc2)c1C [Example 280, N-(dimethyl-1,2-oxazol-3-yl)-2-[4-(4-oxo-3,4-dihydrophthalazin-1-yl)phenyl]acetamide]	101 to 1000	0.1 to 100
